Measurements: patent US6818391B2, “Glutamate transporters” (The Regents of the University of California, priority 2000, dated 2004)
Entries after “also recorded” stand apart in the source; their conditions may differ. One block for each molecule: values may come before it.

How the values were obtained:
[1] = system: untransfected PC12 cell membranes; test: background 3H-glutamate uptake by membranes from untransfected PC12 cells; assay type: biochemical, rat; conditions: uptake at 5 min
Method: To initiate the transport reaction, we added 10 μl of membranes to 190 μl of SH buffer containing 4 mM KCl, 4 mM MgSO4, 4 mM ATP, and 50 μM 3H-glutamate, with other additions noted in the text and figure legends. […] Background uptake was determined using membranes prepared from untransfected cells that were incubated for the same amount of time at the same temperature. Transport measurements were performed in duplicate with at least two different preparations of membranes. The Km was calculated by averaging the results of two separate determinations.

synaptic vesicles = conditions: cited from earlier work
DNPI/VGLUT2 = target: T1, DNPI/VGLUT2 (Rattus norvegicus, UniProt Q9JI12); test: 3H-L-glutamate uptake by membranes from PC12 cells expressing DNPI/VGLUT2; assay type: biochemical; conditions: for inhibition of DNPI-mediated 3H-L-glutamate uptake: uptake at 5 minutes; for effect on 3H-glutamate uptake by DNPI membranes: preloaded 4 mM KCl, 5 minutes
T1 construct: To reconstruct the full open reading frame, the missing segment was amplified from rat brain cDNA by PCR; expressed in transfected cells; light membranes prepared from them
T1 sequence (Q9JI12 1-582): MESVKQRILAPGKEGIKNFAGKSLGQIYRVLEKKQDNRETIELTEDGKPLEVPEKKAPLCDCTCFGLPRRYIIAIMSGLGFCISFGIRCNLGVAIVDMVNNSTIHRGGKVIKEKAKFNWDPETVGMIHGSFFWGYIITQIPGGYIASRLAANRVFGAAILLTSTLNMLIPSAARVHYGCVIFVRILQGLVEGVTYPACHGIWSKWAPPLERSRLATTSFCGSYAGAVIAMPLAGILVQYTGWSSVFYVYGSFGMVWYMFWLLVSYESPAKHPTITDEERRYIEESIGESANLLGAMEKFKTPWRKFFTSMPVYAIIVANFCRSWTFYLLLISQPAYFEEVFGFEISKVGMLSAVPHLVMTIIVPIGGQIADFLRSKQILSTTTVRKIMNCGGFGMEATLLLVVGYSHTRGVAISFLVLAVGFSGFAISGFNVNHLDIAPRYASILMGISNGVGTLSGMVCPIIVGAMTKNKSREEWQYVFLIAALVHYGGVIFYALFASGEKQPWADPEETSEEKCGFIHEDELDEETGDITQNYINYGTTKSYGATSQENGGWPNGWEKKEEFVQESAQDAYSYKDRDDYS
Method: PC12 cells were grown in Dulbecco's modified Eagle's medium containing 10% equine serum, 5% calf serum and transfected by electroporation with the rat DNPI/VGLUT2 cDNA subcloned in the pcDNA3 vector containing an […] (Krantz et al. (2000) J. Cell Biol. 149). Stable transformants were selected for resistance to the neomycin analog G418 (500 μg/ml) and screened by immunofluorescence with the DNPI antibody, resulting in the identification of two independent clones with more than 80% of the cells expressing DNPI.
For membrane preparation, untransfected and DNPI-expressing PC12 cells were grown on 15 cm plates, washed with calcium- and magnesium-free PBS, collected in 0.32 M sucrose/10 mM HEPES-KOH, pH 7.4 (SH buffer) containing protease inhibitors (2 μg/ml leupeptin, 1 μg/ml pepstatin, 1 μg/ml E64, 0.2 mM diisopropylfluorphosphate, 2 μg/ml aprotinin, and 1.25 mM MgEGTA), homogenized using a ball bearing device and the homogenate sedimented at 1000 g for 5 min to remove nuclei and debris. The supernatant was then sedimented at 27,000 g for 35 min to remove heavier membranes. The remaining light membranes including small synaptic-like microvesicles were then sedimented at 210,000 g for 1 hour. The pellet was resuspended in SH buffer with protease inhibitors at ˜10 mg protein/ml.
To initiate the transport reaction, 20 μl membranes (˜200 μg protein) were added to 180 μl SH buffer containing 4 mM KCl, 4 mM MgSO4, […], and 100 μM ^3H-L-glutamate, with other additions noted in the text and figure legends. The reaction mixture was incubated at 29° C. for varying intervals, uptake was terminated by rapid filtration through Supor-200 membranes (Gelman) and the filters were washed rapidly four times with 1.5 ml cold 0.155 M potassium tartrate/10 mm HEPES-KOH, pH 7.4 before measuring the bound radioactivity by scintillation counting in 3 ml Cytoscint (ICN). Uptake specifically mediated by DNPI/VGLUT2 was determined by subtracting the background uptake of untransfected cell membranes from the uptake by transfected cell membranes. To examine the chloride dependence of transport, varying proportions of 0.14 M K gluconate and 0.14 M KCl were mixed in the standard reaction buffer (without sucrose) to vary the chloride concentration and maintain constant osmolarity. The ionophores nigericin and valinomycin used in FIG. 13E were prepared as 200× stock solutions in ethanol. The final ethanol concentration in the reaction mixture was 1%.

BNPI (VGLUT1) = target: T2, BNPI (VGLUT1) (Rattus norvegicus, UniProt Q62634); test: 3H-glutamate uptake by membranes from PC12 cells expressing BNPI; assay type: biochemical; conditions: for inhibition of 3H-glutamate uptake by membranes expressing BNPI: uptake at 5 min; for effect on 3H-glutamate uptake by BNPI membranes: membranes preloaded with 4 mM KCl
T2 construct: expressed in transfected cells; light membranes prepared from them
T2 sequence (Q62634 1-560): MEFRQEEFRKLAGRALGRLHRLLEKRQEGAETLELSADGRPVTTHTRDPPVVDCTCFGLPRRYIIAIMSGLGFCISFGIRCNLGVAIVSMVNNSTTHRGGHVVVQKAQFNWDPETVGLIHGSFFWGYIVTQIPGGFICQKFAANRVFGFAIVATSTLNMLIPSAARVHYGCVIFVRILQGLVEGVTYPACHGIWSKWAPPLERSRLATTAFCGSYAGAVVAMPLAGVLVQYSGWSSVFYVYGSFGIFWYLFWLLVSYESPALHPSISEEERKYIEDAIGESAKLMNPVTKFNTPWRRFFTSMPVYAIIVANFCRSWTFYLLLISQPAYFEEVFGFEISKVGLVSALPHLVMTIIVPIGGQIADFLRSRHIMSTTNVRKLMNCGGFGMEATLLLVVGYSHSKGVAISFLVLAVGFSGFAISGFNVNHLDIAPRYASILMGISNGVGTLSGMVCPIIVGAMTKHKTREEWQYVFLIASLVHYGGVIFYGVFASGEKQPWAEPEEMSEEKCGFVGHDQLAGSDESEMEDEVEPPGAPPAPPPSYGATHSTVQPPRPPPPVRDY
From the text: Rather, the type I transporter NaPi-1 transports organic anions, including phenol red and penicillin G, with substantially higher apparent affinity than Pi (Busch et al. (1996) Proc. Natl. Acad. Sci., USA, 93: 5347). Human genetic studies have shown that mutations in another protein closely related to BNPI and NaPi-1 account for disorders of sialic acid storage (Verheijen et al. (1999) Nature Genet. 23: 462). In these conditions, sialic acid accumulates in lysosomes because of a defect in proton-driven export (Renlund et al. (1986) Science 232: 759; Mancini et al. (1989) J. Biol. Chem. 264: 15247; Tietze et al. (1989) J. Biol. Chem. 264: 15316; Mancini et al. (1992) Proc. Natl. Acad. Sci., USA, 89: 6609). […] To determine whether BNPI mediates the transport of glutamate into synaptic vesicles, we transfected the rat BNPI cDNA into rat pheochromocytoma PC12 cells, which lack detectable endogenous BNPI protein. The rat BNPI cDNA was stably expressed in PC12 cells, and immunofluorescence for BNPI was used to identify the most highly expressing cell clones. Membranes were prepared by homogenizing the washed cells in SH buffer [0.32 M sucrose and 10 mM Hepes-KOH (pH 7.4)] containing protease inhibitors and by pelleting the nuclei at 1000 g for 5 min and the heavier membranes at 27,000 g for 35 min. The supernatant containing lighter membranes was then pelleted at 210,000 g for 1 hour and resuspended in SH buffer with protease inhibitors at a final concentration of ˜10 μg protein/μl.
We then prepared a population of light membranes, including synaptic-like microvesicles, from the transfected and untransfected cells (McIntire et al. (1997) Nature 389: 870) and tested their ability to accumulate 3H-glutamate in the presence of 4 mM chloride and ATP, conditions that optimize glutamate accumulation by native synaptic vesicles (Maycox et al. (1988) J. Biol. Chem., 263: 15423; Carlson et al. […] J. Biol. Chem. 264: 7369). To initiate the transport reaction, we added 10 μl of membranes to 190 μl of SH buffer containing 4 mM KCl, 4 mM MgSO4, 4 mM ATP, and 50 μM 3H-glutamate, with other additions noted in the text and figure legends. The reaction mixture was incubated at 29° C. for varying times, and the uptake was terminated by rapid filtration, followed by immediate washes with 6 ml of cold 0.155 M potassium tartrate and 10 mM Hepes (pH 7.4). Background uptake was determined using membranes prepared from untransfected cells that were incubated for the same amount of time at the same temperature. Transport measurements were performed in duplicate with at least two different preparations of membranes. The Km was calculated by averaging the results of two separate determinations.

Structure (SMILES): Cc1cc(-c2ccc(/N=N/c3ccc4c(S(=O)(=O)O)cc(S(=O)(=O)O)c(N)c4c3O)c(C)c2)ccc1/N=N/c1ccc2c(S(=O)(=O)O)cc(S(=O)(=O)O)c(N)c2c1O [Evans blue]
effect on background glutamate uptake by untransfected cell membranes [1]: had little effect
inhibition of glutamate transport into synaptic vesicles (synaptic vesicles; low micromolar concentrations): inhibited the transport
inhibition of DNPI-mediated 3H-L-glutamate uptake (DNPI/VGLUT2; Evans Blue 4.5 μM): inhibit uptake; also recorded: significantly inhibit
inhibition of 3H-glutamate uptake by membranes expressing BNPI (BNPI (VGLUT1); Evans blue 5 μM (low micromolar)): inhibited the transport; also recorded: inhibits BNPI activity dramatically

Structure (SMILES): N[C@H](CCC(=O)O)C(=O)O [D-Glutamate]
inhibition of DNPI-mediated 3H-L-glutamate uptake (DNPI/VGLUT2; 10 mM): significantly inhibit
inhibition of DNPI-mediated 3H-L-glutamate uptake (DNPI/VGLUT2; 10 mM, listed as D-glutamate): inhibit uptake
inhibition of 3H-glutamate uptake by membranes expressing BNPI (BNPI (VGLUT1); 10 mM): partially inhibits

Structure (SMILES): CC(C)[C@@H]1NC(=O)[C@H](C)OC(=O)[C@@H](C(C)C)NC(=O)[C@@H](C(C)C)OC(=O)[C@H](C(C)C)NC(=O)[C@H](C)OC(=O)[C@@H](C(C)C)NC(=O)[C@@H](C(C)C)OC(=O)[C@H](C(C)C)NC(=O)[C@H](C)OC(=O)[C@@H](C(C)C)NC(=O)[C@@H](C(C)C)OC1=O [valinomycin]
effect on 3H-glutamate uptake by DNPI membranes (DNPI/VGLUT2; 20 μM valinomycin): inhibits
effect on 3H-glutamate uptake by BNPI membranes (BNPI (VGLUT1); valinomycin 20 μM): substantially reduces glutamate uptake

Structure (SMILES): N[C@H](CC(=O)O)C(=O)O [D-aspartate]
inhibition of DNPI-mediated 3H-L-glutamate uptake (DNPI/VGLUT2; 10 mM): not

Structure (SMILES): CO[C@@H]1C[C@@H](C[C@H]2CC[C@H](C)[C@H]([C@@H](C)C(=O)O)O2)O[C@]2(O[C@](C)([C@H]3CC[C@@](C)([C@@H]4O[C@@H]([C@H]5O[C@@](O)(CO)[C@H](C)C[C@@H]5C)C[C@@H]4C)O3)C[C@H]2C)[C@@H]1C [nigericin]
effect on 3H-glutamate uptake by DNPI membranes (DNPI/VGLUT2; 5 μM nigericin): did not significantly reduce transport
effect on 3H-glutamate uptake by BNPI membranes (BNPI (VGLUT1); nigericin 5 μM): increases the uptake

Now from value to molecule, other results behind:

inhibition of 3H-L-glutamate uptake by DNPI (DNPI/VGLUT2; Pi, data not shown): does not
Structure (SMILES): O=P(O)(O)O [Pi, inorganic phosphate]
inhibition of 3H-glutamate uptake by membranes expressing BNPI (BNPI (VGLUT1); 10 mM): did not inhibit; also recorded: has little effect

inhibition of 3H-glutamate uptake by membranes expressing BNPI (BNPI (VGLUT1); 1 μM DIDS): blocks transport only partly
inhibition at 1 µM (BNPI (VGLUT1); 1 μM DIDS, read-out: inhibition of 3H-glutamate transport mediated by BNPI): ~60%
Structure (SMILES): O=S(=O)(O)c1cc(N=C=S)ccc1C=Cc1ccc(N=C=S)cc1S(=O)(=O)O [DIDS, 4,4′-diisothiocyanatostilbene-2,2′-disulfonic acid]
IC50 (synaptic vesicles; read-out: median inhibitory concentration, glutamate transport by synaptic vesicles): ~700 nM

inhibition of 3H-glutamate uptake by membranes expressing BNPI (BNPI (VGLUT1); 10 mM): had no effect and not
Structure (SMILES): NC(=O)CC[C@H](N)C(=O)O [L-glutamine]

inhibition of DNPI-mediated 3H-L-glutamate uptake (DNPI/VGLUT2; 10 mM): not
Structure (SMILES): NCCCC(=O)O [GABA, γ-aminobutyric acid]

inhibition of DNPI-mediated 3H-L-glutamate uptake (DNPI/VGLUT2; 10 mM): not
Structure (SMILES): NCC(=O)O [glycine]
